This is an account of results in ChEMBL document CHEMBL1201862, “PubChem BioAssay data set” (2004).

Structures are written as SMILES. Activity calls are given as the source filed them.

For assay [1], the target named is T1, E3 ubiquitin-protein ligase XIAP (Homo sapiens, UniProt P98170). Kind of assay: small molecules displacing peptide from XIAP – biochemical, IAP family, fluorescence polarization (AID 1018). The format is functional. For orientation: In fluorescence polarisation assays a small probe gives low polarisation when free and higher when bound to something large.
T1 sequence (P98170 whole entry): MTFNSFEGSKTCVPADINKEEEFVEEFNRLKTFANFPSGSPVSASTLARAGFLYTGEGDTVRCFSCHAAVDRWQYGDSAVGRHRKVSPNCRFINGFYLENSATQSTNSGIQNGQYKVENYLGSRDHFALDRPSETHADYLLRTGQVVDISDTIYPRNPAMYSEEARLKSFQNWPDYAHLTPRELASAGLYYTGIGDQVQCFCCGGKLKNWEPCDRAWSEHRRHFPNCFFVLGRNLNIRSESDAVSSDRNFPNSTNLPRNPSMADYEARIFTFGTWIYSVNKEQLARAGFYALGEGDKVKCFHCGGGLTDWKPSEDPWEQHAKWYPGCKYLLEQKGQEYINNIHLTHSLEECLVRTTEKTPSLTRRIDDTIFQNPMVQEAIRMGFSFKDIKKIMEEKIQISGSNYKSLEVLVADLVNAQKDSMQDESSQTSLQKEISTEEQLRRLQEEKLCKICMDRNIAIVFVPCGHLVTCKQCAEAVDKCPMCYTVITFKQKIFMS
Assay [2] addresses T1, E3 ubiquitin-protein ligase XIAP. Kind of assay: Counter Screen using XIAP-Bir3 for Chemical Antagonists of Bir1/2 domains of IAP-family anti-apoptotic proteins. [Related pubchem assays (depositor defined):AID1018, AID1449, AID1514, AID1638, AID1749, AID1750, AID488957, AID488963]. In general terms: Counterscreens check selectivity or assay interference.
Assay [3] can be described thus: protection from phage-mediated lysis, alamar blue read-out – E. coli UTI89, K1F phage, bacterial capsule biogenesis inhibitors (AID 488966). The format is functional. On the technique in general: The colour change of resazurin is a common sign of viable cells or microbes.
The subject of assay [4] is BJ. Kind of assay: cells. The following applies: Homo sapiens. The format is functional, cell-based.
Assay [5] deals with Envelope glycoprotein gp160 (Human immunodeficiency virus 1, UniProt Q6QLK5). Kind of assay: cell-free HIV fusion peptide-binding blockers – biochemical, uHTS, fluorescence dequenching, […] (AID 1986).
Sequence of Envelope glycoprotein gp160 (Q6QLK5 whole entry, the tested form may be a part): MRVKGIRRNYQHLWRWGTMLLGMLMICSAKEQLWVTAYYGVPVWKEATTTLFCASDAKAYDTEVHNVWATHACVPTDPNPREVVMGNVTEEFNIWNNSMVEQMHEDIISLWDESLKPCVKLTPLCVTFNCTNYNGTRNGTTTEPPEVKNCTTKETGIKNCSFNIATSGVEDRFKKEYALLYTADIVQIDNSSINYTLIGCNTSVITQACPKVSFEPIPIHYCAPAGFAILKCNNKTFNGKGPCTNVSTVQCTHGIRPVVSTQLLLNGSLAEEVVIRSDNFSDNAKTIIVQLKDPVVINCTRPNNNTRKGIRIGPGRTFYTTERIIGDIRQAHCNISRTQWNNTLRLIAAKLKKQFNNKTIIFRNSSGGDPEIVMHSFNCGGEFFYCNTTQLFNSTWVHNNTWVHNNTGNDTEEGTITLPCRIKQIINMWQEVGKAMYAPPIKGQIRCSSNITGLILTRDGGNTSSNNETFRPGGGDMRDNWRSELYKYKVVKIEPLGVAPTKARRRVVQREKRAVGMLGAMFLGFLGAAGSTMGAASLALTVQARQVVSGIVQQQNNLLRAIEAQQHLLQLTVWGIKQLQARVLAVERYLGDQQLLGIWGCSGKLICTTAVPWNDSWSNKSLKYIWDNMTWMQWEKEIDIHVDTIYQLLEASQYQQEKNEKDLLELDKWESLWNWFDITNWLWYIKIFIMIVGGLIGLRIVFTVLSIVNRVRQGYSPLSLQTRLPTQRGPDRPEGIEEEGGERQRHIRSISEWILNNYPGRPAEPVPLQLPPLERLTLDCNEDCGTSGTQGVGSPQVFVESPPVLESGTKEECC
Assay [6] in a line: DRD fibroblast viability loss – cell-based, non-viral oncogenic, luminescence, dose response (AID 1934). As to conditions: Homo sapiens. The format is functional.
In assay [7] the test system is BJ. Put plainly: BJ-TERT-LT-ST fibroblast viability loss – cell-based, RAS-independent, luminescence, dose response (AID 1935).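 Further: BJ fibroblasts immortalized with TERT plus LT and ST oncogenes.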 The format is functional. As to conditions: Homo sapiens.
A further assay deals with Genome polyprotein (dengue virus type 2, UniProt P29990). Put plainly: flavivirus cap methylation enzyme inhibition – biochemical, confirmation dose response, primary screen (AID 588689). The format is functional.
Assay [8] concerns BJ. Put plainly: BJ-TERT fibroblast viability loss – cell-based, RAS-independent, luminescence, dose response (AID 1933). The format is functional. As to conditions: Homo sapiens.
Assay [9] can be described thus: Fluorescence-based cell-based high throughput dose response assay for inhibitors of the interaction of nucleotide-binding oligomerization domain containing 2 (NOD2) and the receptor-interacting serine-threonine kinase 2 (RIPK2). The format is functional. As to conditions: Homo sapiens.
Another assay has as its system Saccharomyces cerevisiae. Kind of assay: S. cerevisiae Caspase-1/ASC signal blockers IC50, NALP1 inhibitor project selectivity test (AID 488863). Type of assay: functional, organism-based.
Assay [10] is described as follows: reduction of Shn3 3'UTR-driven luciferase in osteoblasts – cell-based, Clone20 osteoblasts, firefly luciferase, cherry-picked, dose response (AID 624132).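 Further: firefly luciferase luminescence from reporter carrying the Shn3 3'UTR in osteoblasts.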 Type of assay: functional.
Assay [11] concerns the target Luciferin 4-monooxygenase (Photinus pyralis, UniProt P08659). Kind of assay: inhibition of purified Photinus pyralis luciferase – biochemical, luminescence, dose response (AID 1891).
Assay [12] is described as follows: non-specific 3'UTR reporter inhibition in Clone20-Shn3RL – cell-based, Renilla luciferase, cherry-picked, counter-screen for Shn3 inhibitor project, dose response (AID 624133). The format is functional.
Assay [13] can be described thus: loss of viability in HepG2 cells – cell-based, CellTiter-Glo, cherry-picked, cytotoxicity control for Shn3 inhibitor project, dose response (AID 624134). The format is functional.
In another assay the target is Beta Lactamase (Pseudomonas aeruginosa, UniProt Q932Y6). Kind of assay: BLA reporter interference, concentration series – BLA reporter cells, FRET fluorescence, artefact control for NOD2-RIPK2 interaction inhibitor project, dose response (AID 651552). The format is functional, cell-based.
Sequence of Beta Lactamase (Q932Y6 whole entry): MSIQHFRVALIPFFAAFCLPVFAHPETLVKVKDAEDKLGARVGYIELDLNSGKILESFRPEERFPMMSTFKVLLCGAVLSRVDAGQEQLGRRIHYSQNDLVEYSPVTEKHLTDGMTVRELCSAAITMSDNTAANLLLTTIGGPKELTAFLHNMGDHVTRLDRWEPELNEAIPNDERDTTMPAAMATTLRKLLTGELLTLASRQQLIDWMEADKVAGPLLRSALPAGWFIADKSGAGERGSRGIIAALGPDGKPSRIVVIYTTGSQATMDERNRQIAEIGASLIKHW
Assay [14] is described as follows: Luminescence Cell-Based Dose Confirmation HTS to Identify Inhibitors of Platelet Dense Granule Release. [Related pubchem assays: 1663 (Primary HTS), 1678 (Summary of Project)]. The format is functional.
The next assay concerns the target Beta-galactosidase (Escherichia coli, UniProt Q8VNN2). Kind of assay: detection-enzyme interference by beta-gal modulators – biochemical, E. coli enzyme, set 3, artefact control for CCR6 antagonist project, dose response (AID 504712). The format is functional.
Assay [15] addresses NACHT, LRR and PYD domains-containing protein 1 (Homo sapiens, UniProt Q9C000). Put plainly: NALP1 inhibitors in yeast, dose response, luminescent (AID 488860). The format is functional.
For assay [16], the system named is HEK293. Put plainly: cells. The following applies: Homo sapiens.
The test system of assay [17] is HEK293. Put plainly: cells. Type of assay: functional, cell-based. As to conditions: Homo sapiens.
The test system of assay [18] is HEK293. Kind of assay: cells. The following applies: Homo sapiens. Type of assay: functional, cell-based. The source holds these as a separate data set.
The target of a further assay is Tumor necrosis factor (Homo sapiens, UniProt P01375). Kind of assay: analog potency on TNFa NF-kB signaling – cell-based, revised, SAR follow-up (AID 2337). Type of assay: functional.
Sequence of Tumor necrosis factor (P01375 whole entry, the tested form may be a part): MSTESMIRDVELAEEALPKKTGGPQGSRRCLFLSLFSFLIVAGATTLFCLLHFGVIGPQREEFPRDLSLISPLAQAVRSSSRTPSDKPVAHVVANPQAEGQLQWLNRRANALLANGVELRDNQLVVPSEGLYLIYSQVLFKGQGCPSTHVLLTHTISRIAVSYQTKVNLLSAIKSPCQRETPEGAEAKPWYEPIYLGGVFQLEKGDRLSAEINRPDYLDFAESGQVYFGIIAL
The target in assay [19] is T2, Nucleotide-binding oligomerization domain-containing protein 1 (Homo sapiens, UniProt Q9Y239).
T2 sequence (Q9Y239 whole entry): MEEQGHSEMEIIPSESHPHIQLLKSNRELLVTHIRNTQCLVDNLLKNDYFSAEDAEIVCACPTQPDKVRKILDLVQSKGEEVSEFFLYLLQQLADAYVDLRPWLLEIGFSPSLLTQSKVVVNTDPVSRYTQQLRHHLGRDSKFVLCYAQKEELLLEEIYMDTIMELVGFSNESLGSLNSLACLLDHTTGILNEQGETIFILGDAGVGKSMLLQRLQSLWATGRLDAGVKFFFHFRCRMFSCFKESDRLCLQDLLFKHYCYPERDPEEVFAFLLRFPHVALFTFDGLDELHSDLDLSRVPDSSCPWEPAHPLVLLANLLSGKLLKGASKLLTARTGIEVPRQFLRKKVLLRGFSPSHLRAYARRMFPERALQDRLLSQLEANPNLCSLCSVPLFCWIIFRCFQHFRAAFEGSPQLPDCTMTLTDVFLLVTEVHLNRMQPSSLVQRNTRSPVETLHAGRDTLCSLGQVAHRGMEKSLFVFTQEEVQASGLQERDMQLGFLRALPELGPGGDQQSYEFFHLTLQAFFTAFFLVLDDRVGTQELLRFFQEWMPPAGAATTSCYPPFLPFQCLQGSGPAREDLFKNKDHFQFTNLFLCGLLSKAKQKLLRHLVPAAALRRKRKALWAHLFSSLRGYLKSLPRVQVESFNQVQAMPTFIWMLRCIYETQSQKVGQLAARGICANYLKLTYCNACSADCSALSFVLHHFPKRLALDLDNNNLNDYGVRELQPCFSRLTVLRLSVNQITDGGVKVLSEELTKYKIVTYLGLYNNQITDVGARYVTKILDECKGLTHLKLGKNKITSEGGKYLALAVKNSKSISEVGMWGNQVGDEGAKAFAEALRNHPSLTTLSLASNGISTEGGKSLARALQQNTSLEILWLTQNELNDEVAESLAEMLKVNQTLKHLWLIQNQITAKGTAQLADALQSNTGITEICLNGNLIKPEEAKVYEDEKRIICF
Put plainly: blockers of NOD1 pathway activity – revised, SAR follow-up (AID 2333). The format is functional.

Assay [20] addresses Nucleotide-binding oligomerization domain-containing protein 2 (Homo sapiens, UniProt Q9HC29). Put plainly: PubChem AID 2334. The format is functional.
The test system of assay [21] is HEK293. Put plainly: inhibition of NOD1-driven NF-kB reporter – cell-based, luminescence, uHTS, primary screen (AID 1578). Type of assay: functional. The following applies: Homo sapiens.
In assay [22] the test system is HEK293. Kind of assay: NOD2 signaling inhibitors in MDP-stimulated cells, cell-based, uHTS, luminescence (AID 2001). Type of assay: functional. The following applies: Homo sapiens.
Assay [23] has as its target T3, Alkaline phosphatase, tissue-nonspecific isozyme (Homo sapiens, UniProt P05186).
T3 sequence (P05186 whole entry): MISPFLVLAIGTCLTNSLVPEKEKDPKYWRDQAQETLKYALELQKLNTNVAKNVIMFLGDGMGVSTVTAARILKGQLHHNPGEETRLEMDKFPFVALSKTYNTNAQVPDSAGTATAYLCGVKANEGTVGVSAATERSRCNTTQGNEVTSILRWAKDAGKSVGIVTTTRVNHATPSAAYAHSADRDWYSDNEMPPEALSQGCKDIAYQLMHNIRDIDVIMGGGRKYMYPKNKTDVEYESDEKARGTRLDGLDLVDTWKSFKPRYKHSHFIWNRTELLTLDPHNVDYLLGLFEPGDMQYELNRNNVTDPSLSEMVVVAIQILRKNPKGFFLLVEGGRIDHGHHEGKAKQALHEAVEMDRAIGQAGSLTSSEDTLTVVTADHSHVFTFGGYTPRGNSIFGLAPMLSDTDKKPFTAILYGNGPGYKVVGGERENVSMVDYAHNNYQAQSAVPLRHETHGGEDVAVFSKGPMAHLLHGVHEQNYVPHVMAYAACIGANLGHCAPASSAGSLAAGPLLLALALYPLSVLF
Kind of assay: activation of tissue-nonspecific alkaline phosphatase – biochemical, TNAP isozyme, human IAP uHTS hits, selectivity assay for human IAP activator project, dose response (AID 488886).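 Further: potency of compounds raising TNAP activity as a selectivity check on IAP activators.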 The format is functional.

Assay [24] concerns the target T4, Intestinal-type alkaline phosphatase (Homo sapiens, UniProt P09923). Put plainly: human intestinal alkaline phosphatase activators, dose response, biochemical, luminescence, uHTS hits (AID 463120). Type of assay: functional.
The target of assay [25] is T4, Intestinal-type alkaline phosphatase. Kind of assay: activation of human intestinal alkaline phosphatase – biochemical, luminescent, uHTS hits, set 2, dose response (AID 488817).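 Further: potency of activators that raise enzyme activity.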 The format is functional.
Assay [26] has as its target Intestinal-type alkaline phosphatase (Mus musculus, UniProt P24822). Put plainly: PubChem AID 488874. Type of assay: functional.
In assay [27] the target is Polyadenylate-binding protein 1 (Homo sapiens, UniProt P11940). Kind of assay: PABP inhibition in translation initiation, SAR follow-up (AID 435018). The format is functional.
The target of assay [28] is Eukaryotic translation initiation factor 4H (Homo sapiens, UniProt Q15056). Kind of assay: inhibitors of translation initiation factor eIF4H – SAR follow-up (AID 435011). Type of assay: functional.
Assay [29] has as its target DNA dC->dU-editing enzyme APOBEC-3G (Homo sapiens, UniProt Q9HC16). Put plainly: Dose Response confirmation of small molecule APOBEC3G DNA Deaminase Inhibitors via a fluorescence-based single-stranded DNA deaminase assay. [Related pubchem assays (depositor defined):AID493012, AID493028]. The format is functional.
The target of assay [30] is DNA dC->dU-editing enzyme APOBEC-3A (Homo sapiens, UniProt P31941). Put plainly: A3A deaminase inhibition for selectivity – biochemical, dose response (AID 504722). The format is functional.
Sequence of DNA dC->dU-editing enzyme APOBEC-3A (P31941 whole entry): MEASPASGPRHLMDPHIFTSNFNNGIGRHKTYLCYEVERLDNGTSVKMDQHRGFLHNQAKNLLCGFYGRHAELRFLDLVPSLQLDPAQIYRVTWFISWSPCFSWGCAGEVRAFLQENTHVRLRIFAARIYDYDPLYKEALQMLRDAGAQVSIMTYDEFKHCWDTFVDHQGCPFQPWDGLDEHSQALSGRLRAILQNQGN

T4 sequence (P09923 whole entry): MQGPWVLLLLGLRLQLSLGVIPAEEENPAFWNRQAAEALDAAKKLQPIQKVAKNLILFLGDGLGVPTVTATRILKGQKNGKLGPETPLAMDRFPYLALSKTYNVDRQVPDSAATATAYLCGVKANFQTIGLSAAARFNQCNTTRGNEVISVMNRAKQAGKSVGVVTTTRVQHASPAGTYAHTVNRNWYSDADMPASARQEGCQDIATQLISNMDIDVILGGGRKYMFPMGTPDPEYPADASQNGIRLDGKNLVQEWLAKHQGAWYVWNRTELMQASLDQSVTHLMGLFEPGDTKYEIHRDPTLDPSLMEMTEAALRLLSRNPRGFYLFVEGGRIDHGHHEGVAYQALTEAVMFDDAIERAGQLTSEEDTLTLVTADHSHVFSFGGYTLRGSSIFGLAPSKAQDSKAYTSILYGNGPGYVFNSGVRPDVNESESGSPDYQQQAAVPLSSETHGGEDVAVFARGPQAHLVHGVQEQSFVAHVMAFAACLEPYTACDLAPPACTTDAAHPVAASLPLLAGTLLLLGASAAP
Sequence of Intestinal-type alkaline phosphatase (Mus musculus, UniProt P24822) (P24822 whole entry): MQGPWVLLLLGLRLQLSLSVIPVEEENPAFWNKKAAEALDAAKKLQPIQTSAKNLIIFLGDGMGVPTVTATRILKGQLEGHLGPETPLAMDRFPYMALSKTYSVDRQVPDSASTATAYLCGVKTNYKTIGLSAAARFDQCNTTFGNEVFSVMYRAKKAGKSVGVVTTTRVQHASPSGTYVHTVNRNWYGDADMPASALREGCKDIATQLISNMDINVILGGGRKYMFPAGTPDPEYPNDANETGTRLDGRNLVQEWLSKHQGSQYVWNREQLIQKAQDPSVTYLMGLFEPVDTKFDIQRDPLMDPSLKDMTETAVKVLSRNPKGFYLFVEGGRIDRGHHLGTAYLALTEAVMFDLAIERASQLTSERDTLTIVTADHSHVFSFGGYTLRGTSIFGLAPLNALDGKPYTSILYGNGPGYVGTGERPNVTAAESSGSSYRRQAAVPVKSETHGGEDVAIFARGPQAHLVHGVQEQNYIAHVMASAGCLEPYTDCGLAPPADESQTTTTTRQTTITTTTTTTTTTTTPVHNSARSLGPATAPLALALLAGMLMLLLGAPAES
Sequence of DNA dC->dU-editing enzyme APOBEC-3G (Q9HC16 whole entry): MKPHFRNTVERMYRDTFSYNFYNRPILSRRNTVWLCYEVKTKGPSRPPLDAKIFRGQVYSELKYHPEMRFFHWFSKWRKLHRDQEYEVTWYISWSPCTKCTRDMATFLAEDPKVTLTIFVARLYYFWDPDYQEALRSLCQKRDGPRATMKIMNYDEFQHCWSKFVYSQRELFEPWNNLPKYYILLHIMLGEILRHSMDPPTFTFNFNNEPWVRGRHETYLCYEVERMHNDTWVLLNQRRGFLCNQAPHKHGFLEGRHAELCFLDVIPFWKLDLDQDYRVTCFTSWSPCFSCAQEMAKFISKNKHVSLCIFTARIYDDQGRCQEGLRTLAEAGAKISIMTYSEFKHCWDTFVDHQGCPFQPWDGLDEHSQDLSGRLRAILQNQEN
Sequence of NACHT, LRR and PYD domains-containing protein 1 (Q9C000 1-1212 limits assumed): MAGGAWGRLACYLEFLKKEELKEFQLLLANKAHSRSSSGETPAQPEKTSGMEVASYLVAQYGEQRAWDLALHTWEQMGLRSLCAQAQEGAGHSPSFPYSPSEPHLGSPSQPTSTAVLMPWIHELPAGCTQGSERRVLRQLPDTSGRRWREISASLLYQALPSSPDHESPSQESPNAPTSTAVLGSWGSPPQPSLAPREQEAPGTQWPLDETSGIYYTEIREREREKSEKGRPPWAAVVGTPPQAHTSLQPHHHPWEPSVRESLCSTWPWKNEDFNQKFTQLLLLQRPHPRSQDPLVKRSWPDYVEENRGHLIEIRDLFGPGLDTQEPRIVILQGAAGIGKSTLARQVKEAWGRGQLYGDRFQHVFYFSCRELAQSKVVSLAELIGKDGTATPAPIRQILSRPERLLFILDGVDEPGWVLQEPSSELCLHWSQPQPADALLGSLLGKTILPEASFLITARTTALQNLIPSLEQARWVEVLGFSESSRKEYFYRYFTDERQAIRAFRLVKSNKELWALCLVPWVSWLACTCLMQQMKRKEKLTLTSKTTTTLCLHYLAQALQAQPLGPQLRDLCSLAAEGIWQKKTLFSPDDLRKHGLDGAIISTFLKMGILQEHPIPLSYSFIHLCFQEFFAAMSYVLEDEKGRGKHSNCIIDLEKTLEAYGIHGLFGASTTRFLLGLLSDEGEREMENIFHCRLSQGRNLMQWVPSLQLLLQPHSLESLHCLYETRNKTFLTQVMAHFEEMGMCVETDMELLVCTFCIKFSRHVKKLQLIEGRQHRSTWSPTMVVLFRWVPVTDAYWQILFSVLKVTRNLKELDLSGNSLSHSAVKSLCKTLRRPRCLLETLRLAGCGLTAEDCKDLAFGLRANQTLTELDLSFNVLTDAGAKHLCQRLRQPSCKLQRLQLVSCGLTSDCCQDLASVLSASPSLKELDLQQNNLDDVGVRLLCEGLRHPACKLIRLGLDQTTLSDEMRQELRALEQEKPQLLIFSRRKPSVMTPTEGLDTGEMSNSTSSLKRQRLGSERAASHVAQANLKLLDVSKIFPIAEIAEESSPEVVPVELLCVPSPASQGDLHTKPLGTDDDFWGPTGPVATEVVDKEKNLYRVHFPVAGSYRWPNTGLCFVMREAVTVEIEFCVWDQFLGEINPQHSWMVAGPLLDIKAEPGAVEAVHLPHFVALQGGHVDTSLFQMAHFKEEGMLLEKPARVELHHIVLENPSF
Sequence of NACHT, LRR and PYD domains-containing protein 1 (Q9C000 1213-1473 limits assumed): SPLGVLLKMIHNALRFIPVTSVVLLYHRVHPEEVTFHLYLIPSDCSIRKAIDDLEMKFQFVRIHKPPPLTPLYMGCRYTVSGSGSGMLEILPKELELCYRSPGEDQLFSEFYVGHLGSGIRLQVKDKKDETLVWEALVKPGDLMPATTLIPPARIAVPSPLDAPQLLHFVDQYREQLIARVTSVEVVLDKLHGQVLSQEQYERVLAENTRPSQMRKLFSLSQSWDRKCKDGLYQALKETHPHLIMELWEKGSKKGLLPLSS

For orientation: IC50 means the point on the concentration scale where inhibition reaches its midpoint. For the molecule `COc1ccc(-c2nnc(NC(=O)c3cc(C)on3)s2)cc1`, the half-maximal inhibitory concentration (IC50) was > 100 µM (not active) in [1], > 100 µM (inactive) in assay [2] and > 75 µM (active) in [3].

In general, EC50 refers to the concentration at which the effect is half-maximal. `O=C(O)CCN1C(=O)/C(=C\c2cccc(Oc3ccccc3)c2)SC1=S`: the 50% effective concentration (EC50) in the assay with BJ [4] was > 150 µM (not active); in assay [6] it was > 150 µM (not active); in the assay with BJ [7], > 150 µM (inconclusive); in the assay with BJ [8] it was > 150 µM (not active). The half-inhibitory concentration (IC50) in assay [5] is 26.8 µM (active); at Genome polyprotein, 37.4 µM (active).

For orientation: AC50 means the concentration giving half of the maximal activity seen. Turning to `O=C1CC(Sc2nnnn2-c2ccccc2)C(=O)N1c1cccc(Cl)c1` (stereo not given), the IC50 in [9] was 2.81 µM (active); with Saccharomyces cerevisiae, 5.13 µM (active); at Beta Lactamase, 12.6 µM (inactive); on Beta-galactosidase it was > 66.6 µM (inactive); in assay [15], 5.83 µM (active). In addition, the concentration at half-maximal activity (AC50) in assay [10] was 8.53 µM (active); in [12] it was 8.88 µM (active); in assay [13], 24.5 µM (active). For the same molecule, the half-maximal effective concentration (EC50) was > 112 µM (not active) in assay [11] and 19.1 µM (active) in assay [14].

For `NC(=O)C1CCN(c2ccc(S(=O)(=O)N3CCC(Cc4ccccc4)CC3)cn2)CC1`, the IC50 in the assay with HEK293 [16] was > 20 µM (inactive); in the assay on HEK293 [17] it was > 20 µM (inactive); in the assay on HEK293 [18] it was > 20 µM (inactive); on Tumor necrosis factor, 12.4 µM (active); in assay [19], 5.76 µM (active); in [20] it was 9.14 µM (active). The IC50 in the assay with HEK293 [22] is > 20 µM (inactive). The EC50 in the assay on HEK293 [21] was 4.32 µM (active).

Regarding `CN(Cc1ccccc1)C(=O)c1nc[nH]c1C(=O)Nc1nccs1`, the concentration for a half-maximal effect (EC50) in [23] is 16.6 µM (active); in assay [24] it was 10.1 µM (active); in assay [25], 15.8 µM (active). The IC50 in assay [26] is 74.8 µM (active).

In the case of `COc1cc(/C=N\NC(=O)c2ccccc2O)ccc1OCC(=O)Nc1ccc(C)c(C)c1`, the IC50 in assay [27] is > 100 µM (inactive); in assay [28], 34.6 µM (active).

Consider `O=[N+]([O-])c1ccccc1/C=N/n1c(S)nnc1-c1ccccc1`, for which the values for the IC50 in assay [29] and in [30] were 4.25 µM (active) and > 100 µM (inactive), respectively.
